Here are results for 3 compounds from publication PMC11377560, “Structural insights into the molecular effects of the anthelmintics monepantel and betaine on the Caenorhabditis elegans acetylcholine receptor ACR-23” (The EMBO Journal, 2024).

Assay [1] has as its target T1, ACR-23 (acetylcholine receptor like-23) (Caenorhabditis elegans, UniProt G5EG88).
T1 construct: homo-pentamer; M3-M4 loop (residues Lys 386 to Gln 437) replaced with bRIL, C-terminal strep tag (cryo-EM); ACR-23 with C-terminal GFP in HEK293 cells (EC50)
In words: cryo-EM structure ([…] Å, betaine co-bound); EC50 by whole-cell patch clamp in HEK293 cells. It is filed as cell-based. Background: The patch-clamp technique gives a direct electrical read-out from membranes.

Assay [2] has as its target T1, ACR-23 (acetylcholine receptor like-23). In words: cryo-EM structure ([…] Å); EC50 by whole-cell patch clamp in HEK293 cells. It is filed as cell-based.
The target in assay [3] is engineered ACR-23 (acetylcholine receptor like-23), M3-M4 loop replaced with bRIL (Caenorhabditis elegans | not stated) (UniProt G5EG88). The assay can be described thus: cryo-EM structure; single particle cryo-EM of purified ACR-23 in DDM/CHS, 20 mM Tris pH 8.0, 150 mM NaCl; apo, with 1.5 mM betaine, or with 1.5 mM betaine and 5 mM monepantel; homo-pentamer in all three states.

T1 sequence (G5EG88 20-545): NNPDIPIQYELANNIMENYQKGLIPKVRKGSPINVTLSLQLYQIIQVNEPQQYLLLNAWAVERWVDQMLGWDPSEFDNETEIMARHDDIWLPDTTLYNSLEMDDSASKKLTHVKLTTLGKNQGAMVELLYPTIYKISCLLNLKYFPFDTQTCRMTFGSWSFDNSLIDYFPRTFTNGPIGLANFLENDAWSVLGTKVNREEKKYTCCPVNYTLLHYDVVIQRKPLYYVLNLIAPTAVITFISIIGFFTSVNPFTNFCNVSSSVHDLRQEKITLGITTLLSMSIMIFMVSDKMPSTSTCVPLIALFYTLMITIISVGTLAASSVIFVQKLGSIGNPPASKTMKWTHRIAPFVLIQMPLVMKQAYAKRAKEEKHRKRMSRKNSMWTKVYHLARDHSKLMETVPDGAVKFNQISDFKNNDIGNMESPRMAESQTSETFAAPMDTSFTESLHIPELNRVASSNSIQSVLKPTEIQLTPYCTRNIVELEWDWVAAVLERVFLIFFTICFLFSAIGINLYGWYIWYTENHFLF

Regarding `CC(C#N)(COc1cc(C#N)ccc1C(F)(F)F)NC(=O)c1ccc(SC(F)(F)F)cc1` (racemic) [monepantel], in assay [1], the EC50 turned out to be 2.13 µM.

`C[N+](C)(C)CC(=O)O` [betaine] displayed a concentration giving a half-maximal response (EC50) in assay [2] of about 34.4 µM.

The compound “engineered ACR-23 (acetylcholine receptor like-23), M3-M4 loop replaced with bRIL (from UniProt G5EG88 20-385; G5EG88 438-545)” had a stoichiometry N in assay [3] of 5.

Usually EC50 stands for the midpoint of the concentration-response curve. Read a low EC50 as greater potency. Usually stoichiometry N stands for a count of units in the complex or per binding partner.
